The source of these data is patent publication US12589143B2, “Human anti-PD-L1 peptide vaccines and methods of their use” (priority 2019, dated 2026).

The target in one test is T1, PD-1/PD-L1 interaction (Homo sapiens, UniProt Q9NZQ7).
T1 construct: host or cells: PD-L1 aAPC/CHO-K1 cells and PD-1 effector cells
Kind of test: PD-1/PD-L1 blockade bioassay (Promega). Conditions: antibodies from immunized rabbits, compared to Nivolumab and Atezolizumab. Type of test: cell-based. How it is done:
The assay was performed following the manufacturer's protocol for the PD-1/PD-L1 blockade bioassay (Promega).
The bioluminescent cell-based PD-1/PD-L1 blockade bioassays provide a good option for rapid screening of therapeutic antibodies or other compounds developed to interfere with PD-1-signaling interaction. PD1/PD-L1 blockade assay was used to test the functionality of 3 anti-PD-L1 antibodies. It was observed that purified polyclonal anti-PD-L1 antibody from the rabbits was able to block PD1/PD-L1 interaction similar to commercial anti-human PD-L1 antibody (FIG. 12). […] In FIG. 12, we show the capacity of each of the PD-L1 vaccines to block the PD-1:PD-L1 interaction as compared to Nivolumab and Atezolizumab. Remarkably only PD-L1 130-147 antibodies were effective
The assay was performed following the manufacturer's protocol for the PD-1/PD-L1 blockade bioassay (Promega). In brief, 4×10^5 aAPC/CHO-K1 or PD-L1 aAPC/CHO-K1 cells were seeded into 96-well plates in RPMI-1640 with 10% FBS. After overnight culturing, the medium was aspirated, and serially diluted purified PD-L1 or PD-1 antibodies, as well as Nivolumab and Atezolizumab antibodies (as reference antibodies) were added. Next, PD-1 effector cells were co-cultured and plate was kept for 5 h at 37° C. in a humidified 5% CO2 incubator. Following mixing with Bio-Glo Reagent, the luminescence was measured with a luminescence plate reader, SpectraMax M3 plate reader (Molecular Devices).

The subject of another test is D2F2 WT tumor cells. Briefly: D2F2 WT tumor challenge in Balb/c mice. Type of test: in vivo. The conditions noted are these: day 21 and day 28. Here is the method: Balb/c mice 6-8 weeks old, were immunized with G1 and G2 mice were treated with anti-PD-1 mAb (29F.1A12) (G1) or anti-PD-L1 mAb (10F.9G2) (G2 or with MVF-PD-L1 vaccine constructs [PD-L1(92-110)(G3) PD-L1(130-147)(G4)] prior to tumor challenge. Similarly, G10, G11 and G12 are control groups and were not treated prior to tumor cell challenge. G13, G14 and G15 mice were immunized with 100 ug MVF-HER-2(266-296)+100 ug MVF-HER-2(597-626)+ISA720 per mouse for G13, 100 ug MVF-PD-1 (92-110)+100 ug MVF-HER-2(266-296)+100 ug MVF-HER-2(597-626)+ISA720 per mouse for G14 and 100 ug MVF-PD-L1 (130-147)+100 ug MVF-HER-2(266-296)+100 ug MVF-HER-2(597-626)+ISA720 per mouse for G15. The mice were immunized up to 4 times before tumor challenge. […] All the mice had been monitored at least twice per week, and the tumors were measured with calipers as data indicated.
The tumor volumes were measured by calipers and calculated by formula: (length×width2)/2. […] All the peptides immunized groups of mice are shown with less tumor burden than PBS group and mAbs treated groups as well.
G0, G1 and G2 are control groups, mice in these groups were not treated before tumor cells challenge. Following challenge with D2F2 WT tumor cells, G0 mice were treated with PBS (i.p.) twice per week start from day 2 post challenge served as negative control, G1 and G2 mice were treated with anti-PD-1 mAb (29F.1A12) or anti-PD-L1 mAb (10F.9G2), respectively. Treatment for G1 and G2 mouse groups was also started from day 2 post tumor challenge, with 100 ug administered/mouse twice a week. G1 and G2 served as positive control. […] All the mice had been monitored at least twice per week, and the tumors were measured with calipers as data indicated (FIG. 26).
Mice were immunized with designed peptides vaccines as descripted in FIG. 26, which indicated as 1Y, 2Y, 3Y and 4Y here and with 3 weeks apart. […] And the mice were monitor at least twice per week, and the tumors were measured as shown in the data figures.
The tumor volumes were measured by calipers and calculated by formula: (length×width2)/2. […]

In test [1] the test system is HER-2 positive breast cancer. The conditions noted are these: patients with untreated HER-2 positive breast cancer; pertuzumab added to docetaxel and trastuzumab vs without; cited from earlier work.

Where no end group is shown, it is not given here.

T1 sequence (Q9NZQ7 19-290): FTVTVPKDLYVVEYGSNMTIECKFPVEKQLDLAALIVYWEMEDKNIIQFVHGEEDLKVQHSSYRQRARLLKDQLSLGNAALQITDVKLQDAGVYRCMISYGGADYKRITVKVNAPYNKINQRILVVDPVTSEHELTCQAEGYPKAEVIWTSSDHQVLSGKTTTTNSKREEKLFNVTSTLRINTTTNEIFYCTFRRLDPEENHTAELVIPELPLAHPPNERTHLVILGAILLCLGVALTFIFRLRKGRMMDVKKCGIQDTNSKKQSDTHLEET

On to “MVF-PD-1(92-110) (KLLSLIKGVIVHRLEGVEDCRFRVTQLPNGRDFHMSV-NH2)”, for which, in the test with PD-1/PD-L1 interaction, the “blocking of PD-1/PD-L1 interaction” value was “unable to block PD-1 and PD-L1”. Besides, the tumor volume result in the test with D2F2 WT tumor cells was “smaller tumor volume than PBS negative control group and both of mAbs positive control groups”.
On to pertuzumab, for which, in test [1], the overall survival was 56.5 months and the progression-free survival was 18.5 months.
